“And” between values parts separate entries of the source, which are not always exact repeats. Equal entries are not always repeated.
Legend:
[1] = molecular target: SERT (Homo sapiens, UniProt P31645); assay: Human PET SERT occupancy with [11C]-DASB; format: in vivo; design: from tissue; host or cells: brain of healthy male volunteers, in vivo PET
Experimental: This was a Phase 1, open-label, single-dose study in healthy male volunteers to evaluate NET and SERT occupancy in the human brain after oral administration of TD-9855 using PET.
The study was conducted at the Yale PET Center in accordance with the principles of the International Conference on Harmonisation’s Technical Requirements for Registration of Pharmaceuticals for Human Use Guideline for Good Clinical Practice. The protocol was approved by the Yale University Human Investigation Committee and the Yale–New Haven Hospital Radiation Safety Committee. SERT and NET occupancy were determined using the selective radiotracers [^11C]-DASB ([Meyer et al., 2004]; [Takano et al., 2006]; [Abanades et al., 2011]; [Nogami et al., 2013]) and [^11C]-MRB. Selection of the radiotracers and the dose of TD-9855 were flexible to minimize the number of PET scans.
Eligible subjects were enrolled and received either [^11C]-MRB and/or [^11C]-DASB. Each subject underwent up to 5 PET scans over a period of up to 8 days. Multiple dose levels of TD-9855 (up to 20mg) were explored. All randomized subjects received the NET tracer (single-tracer evaluation) and some subjects (n = 3) received both the NET and SERT tracers sequentially (dual-tracer evaluation) in the baseline and post-dose period. […] In the dual-tracer evaluation, subjects completed sequential [^11C]-DASB and [^11C]-MRB baseline scans with each tracer, sequential post-dose scans with each tracer at 7–10hr post-dose, and one follow-up scan with [^11C]-MRB on or between Days 3 and 7. […]
For both studies, binding potentials (BP ND) were estimated using a method based on a reference region input curve. […] The suitability of MRTM2 to estimate [^11C]-MRB BP ND values was evaluated in a previous study ([Hannestad et al., 2010]), in which it was shown that MRTM2 BP ND estimates are highly correlated with BP ND estimated with arterial blood sampling and the multilinear analysis 1 (y = 0.909 x + 0.078, r^2 = 0.821, where x represents the MA1 BP ND values and y represents the MRTM2 BP ND values). […]

[2] = molecular target: T1, rat native DAT (Rattus norvegicus, UniProt P23977); assay: [3H]-DA uptake inhibition in rat striatal synaptosomes; format: biochemical; details: mean (95% CI), 3 to 9 experiments, read-out: Neurotransmitter Uptake Inhibition: pIC50 DAT (converted)
T1 construct: at human recombinant and rat native monoamine transporters; from tissue; host or cells: rat striatal synaptosomes
T1 sequence (P23977 whole entry): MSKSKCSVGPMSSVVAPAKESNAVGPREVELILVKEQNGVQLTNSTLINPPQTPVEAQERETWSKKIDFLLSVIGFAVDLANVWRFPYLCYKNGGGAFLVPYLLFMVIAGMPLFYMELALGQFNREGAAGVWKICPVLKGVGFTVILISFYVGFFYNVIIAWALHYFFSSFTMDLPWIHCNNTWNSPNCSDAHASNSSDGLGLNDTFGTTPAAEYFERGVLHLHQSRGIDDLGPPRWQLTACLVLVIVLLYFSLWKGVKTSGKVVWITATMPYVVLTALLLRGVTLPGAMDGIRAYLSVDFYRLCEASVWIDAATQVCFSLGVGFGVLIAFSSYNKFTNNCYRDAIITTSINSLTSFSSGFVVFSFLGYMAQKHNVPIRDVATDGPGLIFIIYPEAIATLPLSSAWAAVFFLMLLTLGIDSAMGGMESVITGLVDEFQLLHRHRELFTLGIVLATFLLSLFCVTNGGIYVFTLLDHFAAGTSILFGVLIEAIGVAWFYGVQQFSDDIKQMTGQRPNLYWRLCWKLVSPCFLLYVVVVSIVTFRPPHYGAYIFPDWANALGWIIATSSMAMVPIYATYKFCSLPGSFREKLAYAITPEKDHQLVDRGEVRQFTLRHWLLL
Text: The in vitro pharmacology of TD-9855 (4-[2-(2, 4, 6-trifluorophenoxymethyl)phenyl]piperidine; Figure 1) at human recombinant and rat native monoamine transporters was characterized as described previously ([Tsuruda et al., 2010]; [Shen et al., 2013]). Radioligands were sourced commercially (Perkin Elmer Life Sciences or GE Healthcare Life Sciences). Briefly, membranes prepared from HEK293 (Human Embryonic Kidney 293) cells stably-transfected with human recombinant SERT (HEK293-hSERT), NET (HEK293-hNET), or DAT ([…]) were incubated for 1hr at 22°C in the absence, or presence, of TD-9855 and [^3H]-citalopram (1.0nM) for SERT, [^3H]-nisoxetine (2.0nM) for NET, and [^3H]-WIN35428 (3.0nM) for DAT in 50mM Tris-HCl, 120mM NaCl, 5mM KCl, 0.025% BSA, 100 μM ascorbic acid, pH 7.4. Rat cortical membrane preparations were incubated with [^3H]-citalopram (2.0nM) for SERT or [^3H]-nisoxetine (4.0nM) for NET for 1hr at 22°C. […] Binding and uptake assays were terminated by rapid filtration and radioactivity, determined by liquid scintillation spectroscopy.

SERT, sequence (P31645 whole entry): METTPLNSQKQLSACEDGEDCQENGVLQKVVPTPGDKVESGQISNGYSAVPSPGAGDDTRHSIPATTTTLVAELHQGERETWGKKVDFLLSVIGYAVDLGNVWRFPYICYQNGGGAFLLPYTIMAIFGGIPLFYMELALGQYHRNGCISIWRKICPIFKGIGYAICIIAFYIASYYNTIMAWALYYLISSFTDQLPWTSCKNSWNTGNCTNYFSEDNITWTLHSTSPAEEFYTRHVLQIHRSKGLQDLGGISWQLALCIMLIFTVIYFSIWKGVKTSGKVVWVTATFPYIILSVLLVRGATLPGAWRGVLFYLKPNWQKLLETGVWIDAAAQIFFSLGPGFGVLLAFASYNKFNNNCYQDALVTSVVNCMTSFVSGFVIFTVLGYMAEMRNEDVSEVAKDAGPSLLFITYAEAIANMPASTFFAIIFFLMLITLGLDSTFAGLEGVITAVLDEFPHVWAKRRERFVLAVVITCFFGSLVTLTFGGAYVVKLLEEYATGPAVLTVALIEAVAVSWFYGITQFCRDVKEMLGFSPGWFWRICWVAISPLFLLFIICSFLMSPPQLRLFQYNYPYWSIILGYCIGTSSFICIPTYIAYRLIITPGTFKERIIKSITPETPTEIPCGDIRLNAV

Fc1cc(F)c(OCc2ccccc2C2CCNCC2)c(F)c1 [TD-9855, 4-[2-(2,4,6-trifluorophenoxymethyl)phenyl]piperidine]
average SERT occupancy ([1]; 20mg single oral dose, Day 1, mean ± SD, n = 3, at plasma level 6.35ng/mL): 25 (±8) % | Apparent SERT Occupancy Day 1 ([1]; 20 mg single oral dose, individual subjects, rApp ± SE, listed as TH-9855): 15.5±2.6% and 29.1±2.2% and 30.5±3.1% | levels of SERT occupancy across subjects ([1]; single dose of 20mg, n = 3): 15–30% | IC50 [2]: 126 nM

— PMC4368888, “Preclinical to Clinical Translation of CNS Transporter Occupancy of TD-9855, a Novel Norepinephrine and Serotonin Reuptake Inhibitor” (International Journal of Neuropsychopharmacology, 2015)
